Activity calls are given as the source filed them. The calls are words filed in the database; no cut-off is given here.
Experiments:
[1] = tested on: P21; test: Inhibition of HPV-16 LCR transcriptional activity in human P21 cells at 100 uM after 24 hrs by luciferase reporter gene assay; format: cell-based; settings: Alphapapillomavirus 9
[2] = tested on: P21; test: Inhibition of HPV-16 LCR transcriptional activity in human P21 cells at 30 uM after 24 hrs by luciferase reporter gene assay; format: cell-based; settings: Alphapapillomavirus 9
[3] = Cytotoxicity against human CaSki cells assessed as inhibition of cell proliferation at 10 uM after 24 hrs by CellTiter96 assay; format: cell-based; settings: ca-ski
[4] = Cytotoxicity against human P21 cells assessed as inhibition of cell viability after 24 hrs by CellTiter96 assay; format: cell-based
[5] = Selectivity index, ratio of CC50 for human P21 cells to IC50 for HPV-16 LCR transcriptional activity in human P21 cells; format: functional
[6] = (§1) Inhibition of HPV-16 LCR transcriptional activity in human P21 cells after 24 hrs by luciferase reporter gene assay; format: cell-based; settings: Alphapapillomavirus 9, P21, 24 h
[7] = tested on: P21; test: as §1; format: cell-based; settings: Alphapapillomavirus 9
[8] = Drug uptake in human CaSki cells at 10 uM after 16 hrs by reverse-phase HPLC analysis; format: ADME, cell-based; settings: ca-ski
[9] = Drug uptake in human CaSki cells at 10 uM after 1 hr by reverse-phase HPLC analysis; format: ADME, cell-based; settings: ca-ski
[10] = tested on: Human alphaherpesvirus 2; test: Antiviral activity against HSV2 infected in african green monkey Vero cells assessed as protection against virus-induced cytopathogenicity; format: functional, organism-based
[11] = tested on: Human immunodeficiency virus 1; test: Antiviral activity against HIV-1 3B infected in human MT4 cells assessed as protection against virus-induced cytopathogenicity; format: functional, organism-based
[12] = tested on: Vesicular stomatitis virus; test: Antiviral activity against VSV infected in african green monkey Vero cells assessed as protection against virus-induced cytopathogenicity; format: functional, organism-based
[13] = tested on: Rotavirus; test: Antiviral activity against HRV infected in […] cells assessed as protection against virus-induced cytopathogenicity; format: functional, organism-based
[14] = tested on: Human orthopneumovirus; test: Antiviral activity against RSV infected in human Hep2 cells assessed as protection against virus-induced cytopathogenicity; format: functional, organism-based; settings: human respiratory syncytial virus; HEp-2
[15] = tested on: Ca-Ski; test: Inhibition of LCR-mediated E6 mRNA expression in HPV-16-positive human CaSki cells at 10 uM after 24 hrs by RT-PCR analysis; format: cell-based; settings: Alphapapillomavirus 9
[16] = tested on: Ca-Ski; test: Inhibition of LCR-mediated E7 mRNA expression in HPV-16-positive human CaSki cells at 10 uM after 24 hrs by RT-PCR analysis; format: cell-based; settings: Alphapapillomavirus 9

O=C(O)c1cn(CCc2ccccn2)c2nc(N3CCN(c4nc5ccccc5s4)CC3)ccc2c1=O
inhibition [1]: 0%
inhibition [2]: 0%

O=C(O)c1cn(Cc2cccc(Cl)c2F)c2nc(N3CCN(c4ccccn4)CC3)ccc2c1=O
inhibition [1]: 25.8%
inhibition [2]: 30.5%
Activity [3]: Non-toxic

CCOC(=O)c1cn(Cc2ccccc2)c2nc(N3CCN(c4nc5ccccc5s4)CC3)ccc2c1=O
CC50 at 24 h [4]: 61.7 µM
Ratio CC50/IC50 [5]: 268
inhibition [1]: 98.1%
inhibition [2]: 98.2%
Activity [3]: Non-toxic
IC50 [6]: 0.23 µM

CCOC(=O)c1cn(Cc2ccc3[nH]ccc3c2)c2nc(N3CCN(c4nc5ccccc5s4)CC3)ccc2c1=O
CC50 at 24 h [4]: > 100 µM
Ratio CC50/IC50 [5]: >769
inhibition [1]: 90.2%
inhibition [2]: 93.6%
Activity [3]: Non-toxic
IC50 [6]: 0.13 µM

CCOC(=O)c1cn(Cc2cccc(Cl)c2)c2nc(N3CCN(c4nc5ccccc5s4)CC3)ccc2c1=O
CC50 at 24 h [4]: > 100 µM
Ratio CC50/IC50 [5]: >38.1
inhibition [1]: 96%
inhibition [2]: 96%
Activity [3]: Non-toxic
IC50 [6]: 2.62 µM

CCOC(=O)c1cn(Cc2cccc(Cl)c2F)c2nc(N3CCN(c4ccccn4)CC3)ccc2c1=O
CC50 at 24 h [4]: > 100 µM
Ratio CC50/IC50 [5]: >89.2
inhibition [1]: 93.1%
inhibition [2]: 89.2%
Activity [3]: Non-toxic
IC50 [6]: 1.12 µM
inhibition [7]: Dose-dependent effect

CCOC(=O)c1cn(Cc2ccc(Cl)cc2)c2nc(N3CCN(c4nc5ccccc5s4)CC3)ccc2c1=O
CC50 at 24 h [4]: > 100 µM
Ratio CC50/IC50 [5]: >42.1
inhibition [1]: 90%
inhibition [2]: 90%
Activity [3]: Non-toxic
IC50 [6]: 2.37 µM

O=C(O)c1cn(Cc2ccccc2)c2nc(N3CCN(c4nc5ccccc5s4)CC3)ccc2c1=O
CC50 at 24 h [4]: 69.6 µM
Ratio CC50/IC50 [5]: 15.2
inhibition [1]: 100%
inhibition [2]: 100%
Activity [3]: Non-toxic
IC50 [6]: 4.55 µM

CCOC(=O)c1cn(Cc2ccccn2)c2nc(N3CCN(c4nc5ccccc5s4)CC3)ccc2c1=O
CC50 at 24 h [4]: 34.6 µM
Ratio CC50/IC50 [5]: 6.5
inhibition [1]: 73.4%
inhibition [2]: 63.1%
IC50 [6]: 5.3 µM

O=C(O)c1cn(Cc2cccc(Cl)c2F)c2nc(N3CCN(c4ccc5ccccc5n4)CC3)ccc2c1=O
CC50 at 24 h [4]: 17.6 µM
Drug uptake [8]: 38%
Ratio CC50/IC50 [5]: 6.1
inhibition [1]: 100%
inhibition [2]: 99.3%
Activity [3]: Non-toxic
IC50 [6]: 2.86 µM
Drug uptake [9]: 20%

CCOC(=O)c1cn(CCc2ccc(Cl)cc2)c2nc(N3CCN(c4nc5ccccc5s4)CC3)ccc2c1=O
inhibition [1]: 50.4%
inhibition [2]: 49.6%

O=C(O)c1cn(Cc2cccc(Cl)c2F)c2nc(N3CCN(c4nc5ccccc5s4)CC3)ccc2c1=O
Drug uptake [8]: 35%
inhibition [1]: 56%
inhibition [2]: 38.3%
Activity [3]: Non-toxic
Drug uptake [9]: 20%

O=C(O)c1cn(Cc2ccccn2)c2nc(N3CCN(c4nc5ccccc5s4)CC3)ccc2c1=O
inhibition [1]: 61%
inhibition [2]: 24%

O=C(O)c1cn(Cc2cccc(Cl)c2F)c2nc(N3CCN(c4nccs4)CC3)ccc2c1=O
Drug uptake [8]: 63%
inhibition [1]: 2.1%
inhibition [2]: 7.39%
Activity [3]: Non-toxic
Drug uptake [9]: 20%

CCOC(=O)c1cn(Cc2cccc(Cl)c2F)c2nc(N3CCN(c4nc5ccccc5s4)CC3)ccc2c1=O
CC50 at 24 h [4]: > 100 µM
Activity [10]: Active
Drug uptake [8]: 15%
Activity [11]: inactive
Ratio CC50/IC50 [5]: >385
Activity [12]: Active
Activity [13]: inactive
inhibition [1]: 94.9%
inhibition [2]: 82.8%
Activity [3]: Non-toxic
IC50 [6]: 0.26 µM
Activity [14]: Active
Drug uptake [9]: Not Active

CCOC(=O)c1cn(CCc2ccccn2)c2nc(N3CCN(c4nc5ccccc5s4)CC3)ccc2c1=O
CC50 at 24 h [4]: 17.1 µM
Ratio CC50/IC50 [5]: 16.2
inhibition [1]: 100%
inhibition [2]: 87%
IC50 [6]: 1.05 µM

CCOC(=O)c1cn(Cc2cccc(Cl)c2F)c2nc(N3CCN(c4ccc5ccccc5n4)CC3)ccc2c1=O
CC50 at 24 h [4]: 59.3 µM
Drug uptake [8]: 40%
inhibition [15]: 61.5%
Ratio CC50/IC50 [5]: 282
inhibition [1]: 93.7%
inhibition [16]: 57.4%
inhibition [2]: 92.3%
Activity [3]: Non-toxic
IC50 [6]: 0.21 µM
Drug uptake [9]: Not Active

CCOC(=O)c1cn(Cc2cccc(Cl)c2F)c2nc(N3CCN(c4nccs4)CC3)ccc2c1=O
CC50 at 24 h [4]: 25.3 µM
Drug uptake [8]: 70%
inhibition [15]: 71.7%
Ratio CC50/IC50 [5]: 20.9
inhibition [1]: 99.7%
inhibition [16]: 72.7%
inhibition [2]: 98%
Activity [3]: Non-toxic
IC50 [6]: 1.21 µM
Drug uptake [9]: Not Active

CCOC(=O)c1cn(Cc2cccc(Cl)c2F)c2nc(N3CCN(c4nc5ccccc5o4)CC3)ccc2c1=O
CC50 at 24 h [4]: > 100 µM
Ratio CC50/IC50 [5]: >256
inhibition [1]: 83.9%
inhibition [2]: 88.1%
IC50 [6]: 0.39 µM

CCOC(=O)c1cn(Cc2ccc(C(F)(F)F)cc2)c2nc(N3CCN(c4nc5ccccc5s4)CC3)ccc2c1=O
CC50 at 24 h [4]: 78.2 µM
Ratio CC50/IC50 [5]: 7.16
inhibition [1]: 89.3%
inhibition [2]: 67.5%
IC50 [6]: 10.9 µM

CCOC(=O)c1cn(Cc2nc3ccccc3[nH]2)c2nc(N3CCN(c4nc5ccccc5s4)CC3)ccc2c1=O
inhibition [1]: 45.5%
inhibition [2]: 38.3%

CCOC(=O)c1cn(Cc2ccccc2F)c2nc(N3CCN(c4nc5ccccc5s4)CC3)ccc2c1=O
CC50 at 24 h [4]: > 100 µM
Ratio CC50/IC50 [5]: >23.9
inhibition [1]: 75.6%
inhibition [2]: 88.6%
IC50 [6]: 4.18 µM

— ChEMBL document CHEMBL3297723, “Ethyl 1,8-naphthyridone-3-carboxylates downregulate human papillomavirus-16 E6 and E7 oncogene expression” (J Med Chem, 2014)
